Reference: the CombiSolv-Exp solvation set (Vermeire and Green 2021)

Assay: solvent given as SMILES

C1=CCCC=C1
Conditions | solvation free energy, 298 K [kcal/mol]
in C1CCC2CCCCC2C1 | -4.14
in C1CCC(C2CCCCC2)CC1 | -4.06
in CN1CCCC1=O | -3.77
in O | -0.26
in c1ccc2c(c1)CCCC2 | -4.31
in c1ccc(C2CCCCC2)cc1 | -4.19

CSSC
Conditions | solvation free energy, 298 K [kcal/mol]
in O | -1.74

O=C(OCc1ccccc1)c1ccccc1C(=O)OCc1ccccc1
Conditions | solvation free energy, 298 K [kcal/mol]
in O | -11.3

CC(C)C(C)(C)O
Conditions | solvation free energy, 298 K [kcal/mol]
in CCCCCCCC | -4.6
in CCCCCCCCCC | -4.55

COCOC
Conditions | solvation free energy, 298 K [kcal/mol]
in ClC(Cl)(Cl)Cl | -3.66
in ClC(Cl)Cl | -3.99
in O | -2.95
in S=C=S | -3.28

CCCC(C)=O
Conditions | solvation free energy, 298 K [kcal/mol]
in CC(C)CC(C)(C)C | -4.14
in CC(C)CCCC(C)CCCC(C)CCCCC(C)CCCC(C)CCCC(C)C | -3.72
in CCCCCCC | -4.07
in CCCCCCCC | -3.87
in CCCCCCCCCC | -3.93
in CCCCCCCCCCCCCCCC | -3.74
in CCCCCCCCO | -4.35
in CCN1CCCC1=O | -4.86
in CCN(CC)C(C)=O | -4.91
in CCNC(C)=O | -4.61
in CCNC=O | -4.69
in CN1CCCC1=O | -4.73
in CN1CCCCC1=O | -4.83
in CNC=O | -4.69
in CO | -4.88
in NC=O | -4.12
in O | -3.46
in O=CN1CCOCC1 | -4.52
in [2H]O[2H] | -3.38

COc1ccccc1O
Conditions | solvation free energy, 298 K [kcal/mol]
in O | -5.67

Cc1ccc(C=O)o1
Conditions | solvation free energy, 298 K [kcal/mol]
in CCCCCCCC | -4.95
in CCCCCCCCCC | -5.29
in O | -5.5

CCCCCCCCCCCCCCCCCCCCO
Conditions | solvation free energy, 298 K [kcal/mol]
in CC(C)O | -16.2
in CCCCCCCCCCO | -16.4
in CCCCCCCCO | -16.4
in CCCCCCO | -16.5

Cc1cc(C)cc(C)c1
Conditions | solvation free energy, 298 K [kcal/mol]
in O | -0.77
in OCCO | -3.76
in OCCOCCO | -4.65

CCOC(C)(C)CC
Conditions | solvation free energy, 298 K [kcal/mol]
in O | -1.5

C=CCC=C
Conditions | solvation free energy, 298 K [kcal/mol]
in CN(C)C=O | -2.62
in O | 0.94

C1COCCO1
Conditions | solvation free energy, 298 K [kcal/mol]
in Brc1ccccc1 | -5.08
in C1CCCCC1 | -4.15
in C1CCOC1 | -5.11
in CC1COC(=O)O1 | -4.98
in CC#N | -5.28
in CC(=O)N(C)C | -4.98
in CC(=O)O | -5.82
in CC(=O)c1ccccc1 | -5.03
in CC(C)(C)Cl | -4.78
in CC(C)(C)O | -4.79
in CC(C)=O | -5.07
in CC(C)CC(C)(C)C | -4.01
in CC(C)CCCC(C)CCCC(C)CCCCC(C)CCCC(C)CCCC(C)C | -3.8
in CC(C)CCO | -4.54
in CC(C)O | -4.55
in CC(C)OC(C)C | -4.39
in CCBr | -5.21
in CCC(C)=O | -5.01
in CCC(C)Cl | -4.7
in CCCC#N | -5.03
in CCCCC | -4.02
in CCCCCC | -4.06
in CCCCCCC | -4.01
in CCCCCCCCCC | -3.97
in CCCCCCCCCCCCCCCC | -3.81
in CCCCCl | -4.8
in CCCCN | -4.93
in CCCCN(C=O)CCCC | -4.58
in CCCCO | -4.56
in CCCCOCCCC | -4.31
in CCCO | -4.51
in CCN(CC)CC | -4.35
in CCO | -4.68
in CCOC(C)=O | -5.01
in CCOCC | -4.62
in CCOCCOCCOCC | -4.77
in CCOP(=O)(OCC)OCC | -4.63
in CCOc1ccccc1 | -4.85
in CN1CCCC1=O | -4.97
in CN1CCN(C)C1=O | -4.62
in CN(C)C=O | -5.06
in CN(C)P(=O)(N(C)C)N(C)C | -4.82
in CNC(C)=O | -4.67
in CNC=O | -4.87
in CO | -4.9
in COCCO | -4.92
in COc1ccccc1 | -5.06
in CS(C)=O | -4.84
in Cc1ccc(C)cc1 | -4.8
in Cc1cccc(C)n1 | -4.91
in Cc1cccc(O)c1 | -6.82
in Cc1ccccc1 | -4.91
in Cc1ccccn1 | -5.02
in ClC(Cl)(Cl)Cl | -4.95
in ClC(Cl)Cl | -6.11
in Clc1ccccc1 | -5.07
in FC(F)(F)C(F)(F)C(F)(F)C(F)(F)C(F)(F)C(F)(F)F | -2.75
in Fc1c(F)c(F)c(F)c(F)c1F | -4.93
in Fc1ccccc1 | -5.16
in ICI | -4.89
in Ic1ccccc1 | -4.94
in NC=O | -4.8
in Nc1ccccc1 | -5.65
in O | -5.06
in O=C1CCCCC1 | -4.98
in O=C1CCCO1 | -5.07
in O=CN1CCOCC1 | -4.73
in OCCO | -4.29
in OCCOCCOCCO | -3.88
in OCc1ccccc1 | -5.42
in S=C=S | -4.62
in [2H]O[2H] | -5.02
in c1ccc2ncccc2c1 | -4.87
in c1ccc(COCc2ccccc2)cc1 | -4.77
in c1ccccc1 | -5.16
in c1ccncc1 | -5.16
